Marks after values point to notes of the source that are not given here.
Columns and labels:
epileptic patients = assay: Tolerability studies in epileptic patients; assay type: in vivo, human; details: doses up to 4000 mg/day; preliminary data
healthy volunteers = assay: Clinical studies, tolerability in healthy volunteers; assay type: in vivo, human
[1] = tested on: 55 different binding sites including different receptor systems, reuptake sites, second messenger systems and channel proteins; details: in vitro; cited from earlier work
[2] = tested on: diabetic rats (streptozocin-induced diabetic neuropathy); assay: Randall and Selitto test, mechanical hyperalgesia in streptozotocin diabetic rats; assay type: in vivo, rat
Excerpt: In order to study the activity of levetiracetam with respect to chronic or neuropathic pain, the Applicant carried out a series of experiments based on the Randall test “A method for measurement of analgesic activity on inflamed tissue; Arch. Int. pharmacodyn., 1957, CXI, No4. P 409-419”. By virtue of this protocol, it was possible to determine the ability of levetiracetam to correct hyperalgesia secondary to induction of a neuropathic problem of metabolic origin in a rodent.
The diabetic neuropathy thereby induced allowed the correction of the hyperalgesia caused by the use of levetiracetam to be measured.
The animals used for these experiments were male Sprague-Dawley rats (Charles River, France), weighing 250-280 grams (g), which had undergone induction of diabetes one week after receipt. Male Sprague-Dawley rats (200-220 g) received one interperitoneal injection of streptozocin (75 mg/kg, i.p.) (Zanosar, Upjohn, France) dissolved in distilled water. Hyperglycaemia was confirmed one week after induction by determining the quantity of blood glucose (caudal puncture) using a Dextrostix reactive strip (Ames) read using a calorimeter (Ames Division, Miles Laboratoires, France). Animals with more than 14 millimoles (mM) were considered to be diabetic. The pain thresholds were determined 3 weeks after induction of diabetes.
This model was used in accordance with the description in COURTEIX et al., “Streptozocin-induced diabetic rats. Behavioural evidence for a model of chronic pain” Pain (1993), vol. 53, p81-88. The study was performed using the following compounds: • […]: (Laboratories UCB), dissolved in distilled water. • CARBAMAZEPINE: (Sigma), dissolved in hydroxy propel methylcellulose.
As has already been mentioned above, the test explained below was performed to stimulate a reaction in the animal with a mechanical nociceptive stimulus to a hind paw. An increasing pressure was applied using an analgesia meter (Ugo Basile, type 7200), until a cry was emitted which was considered to be the pain threshold, expressed in grams.
After determining the base thresholds, the animals received the study treatments (vehicle, levetiracetam, 17, 54, 95.2 and 120 mg/kg, carbamazepine, 10 and 30 mg/kg) administered intraperitoneally (i.p.) using the equal block method to avoid any chronobiological influence. The effects of different treatments were thus determined during the same time period. The reaction thresholds were measured 15, 30, 45, 60, 90, 120 and 180 minutes (min) after administration. All of the experiments were performed blind with 8 different animals per treatment.
The results are expressed as means±standard error of mean (S.E.M.).
The dose which could overcome 50% of the hyperalgesia induced by diabetes was calculated as the “anti-hyperalgesic dose effective 50”.
Statistical comparison was carried out by means of a two-way analysis of variance followed by Fischer's PLSD multiple comparison test to analyze the temporal effect.

[3] = tested on: chloride fluxes induced by muscimol; details: cited from earlier work
[4] = Plasma and brain levels after oral dosing in sound-sensitive mice; details: male, genetically sound-sensitive, derived from a DBA strain, mouse, brain, po, 166.2 mg/kg
Experimental: Male genetically sound-sensitive mice (17-30 g; N=10), derived from a DBA strain originally selected by Dr Lehmann of the Laboratory of Acoustic Physiology (Paris) and bred in the UCB Pharma Sector husbandry unit since 1978, were submitted to the induction of audiogenic seizures. Levetiracetam (5.4 mg/kg) and sodium valproate (166.2 mg/kg) were administered orally, alone or in combination, 60 minutes before the induction of audiogenic seizures. For testing audiogenic seizure, the mice were placed in the cages, one mouse per cage, in the sound-attenuated chamber. After a period of habituation of 30 seconds, the acoustic stimulus (90 dB, 10-20 kHz) was delivered for 30 seconds via the loud speakers. During this interval, the mice were observed and the presence of the 3 phases of the seizure activity, namely wild running, clonic and tonic convulsions, was recorded.
In all animals, blood samples were collected immediately after the seizure test (I h after dosing) by cardiac puncture under light carbon dioxide anesthesia, into heparinised microtubes. […] Levetiracetam was measured in plasma and brain samples by validated gas chromatography assay with mass detection. With sodium valproate, fluorescence polarization immunoassays were used.
The mean value plus standard deviation was calculated for plasma and brain concentrations of valproate and levetiracetam, and for the brain/plasma ratio. […]

Structure (SMILES): CC[C@@H](C(N)=O)N1CCCC1=O [Levetiracetam, (S)-(−)α-ethyl-2-oxo-1-pyrrolidineacetamide]
- tolerability (in words) (epileptic patients): good tolerability
- tolerability (in words) (healthy volunteers; repeated doses 1500 mg/day for 14 days): well tolerated
- tolerability (in words) (healthy volunteers; single dose): well tolerated
- displacement of ligands specific for 55 different binding sites [1]: not revealed any significant displacement
- anti-hyperalgesic effective dose 50 ([2]; dose overcoming 50% of the hyperalgesia induced by diabetes, i.p.): 35.1 ± 1.8 mg/kg
- Effect on diabetic hyperalgesia (in words) ([2]; i.p., diabetic rats): a dose of 120 mg/kg of levetiracetam caused complete correction of hyperalgesia
- vocalization threshold ([2]; levetiracetam 17 mg/kg i.p. group, before diabetes (baseline), mean (SEM)): 282.2 (5.48) g
- vocalization threshold ([2]; levetiracetam 17 mg/kg i.p., 15 min after injection): 211.9 (7.19)* g
- vocalization threshold ([2]; levetiracetam 17 mg/kg i.p., 30 min after injection): 206.3 (10.12)* g
- vocalization threshold ([2]; levetiracetam 17 mg/kg i.p., 45 min after injection): 193.1 (7.19) g
- vocalization threshold ([2]; levetiracetam 17 mg/kg i.p., 60 min after injection): 185.6 (4.86) g
- vocalization threshold ([2]; levetiracetam 17 mg/kg i.p., 90 min after injection): 178.1 (3.40) g
- vocalization threshold ([2]; levetiracetam 17 mg/kg i.p., 120 min after injection): 180.0 (2.83) g
- vocalization threshold ([2]; levetiracetam 17 mg/kg i.p., 180 min after injection): 176.3 (2.45) g
- vocalization threshold ([2]; levetiracetam 17 mg/kg i.p., after diabetes, 0 min (base threshold)): 181.9 (3.09) g
- vocalization threshold ([2]; levetiracetam 54 mg/kg i.p. group, before diabetes (baseline), mean (SEM)): 296.3 (10.12) g
- vocalization threshold ([2]; levetiracetam 54 mg/kg i.p., 15 min after injection): 238.1 g
- vocalization threshold ([2]; levetiracetam 54 mg/kg i.p., 30 min after injection): 243.8 (15.97)* g
- vocalization threshold ([2]; levetiracetam 54 mg/kg i.p., 45 min after injection): 230.6 g
- vocalization threshold ([2]; levetiracetam 54 mg/kg i.p., 60 min after injection): 189.4 (13.87) g
- vocalization threshold ([2]; levetiracetam 54 mg/kg i.p., 90 min after injection): 176.3 (8.39) g
- vocalization threshold ([2]; levetiracetam 54 mg/kg i.p., 120 min after injection): 176.3 (6.80) g
- vocalization threshold ([2]; levetiracetam 54 mg/kg i.p., 180 min after injection): 176.3 (6.80) g
- vocalization threshold ([2]; levetiracetam 54 mg/kg i.p., after diabetes, 0 min (base threshold)): 180.0 (5.30) g
- vocalization threshold ([2]; levetiracetam 95.2 mg/kg i.p. group, before diabetes (baseline), mean (SEM)): 306.6 (11.73) g
- vocalization threshold ([2]; levetiracetam 95.2 mg/kg i.p., 15 min after injection): 264.4 g
- vocalization threshold ([2]; levetiracetam 95.2 mg/kg i.p., 30 min after injection): 283.1 (24.62)* g
- vocalization threshold ([2]; levetiracetam 95.2 mg/kg i.p., 45 min after injection): 234.4 g
- vocalization threshold ([2]; levetiracetam 95.2 mg/kg i.p., 60 min after injection): 180.0 (12.36) g
- vocalization threshold ([2]; levetiracetam 95.2 mg/kg i.p., 90 min after injection): 180.0 (8.02) g
- vocalization threshold ([2]; levetiracetam 95.2 mg/kg i.p., 120 min after injection): 159.4 (3.95) g
- vocalization threshold ([2]; levetiracetam 95.2 mg/kg i.p., 180 min after injection): 163.1 (4.43) g
- vocalization threshold ([2]; levetiracetam 95.2 mg/kg i.p., after diabetes, 0 min (base threshold)): 169.7 (6.00) g
- vocalization threshold ([2]; levetiracetam 120 mg/kg i.p. group, before diabetes (baseline), mean (SEM)): 309.4 (15.25) g
- vocalization threshold ([2]; levetiracetam 120 mg/kg i.p., 15 min after injection): 331.9 g
- vocalization threshold ([2]; levetiracetam 120 mg/kg i.p., 30 min after injection): 315.0 (30.00)* g
- vocalization threshold ([2]; levetiracetam 120 mg/kg i.p., 45 min after injection): 262.5 g
- vocalization threshold ([2]; levetiracetam 120 mg/kg i.p., 60 min after injection): 213.8 (13.52)* g
- vocalization threshold ([2]; levetiracetam 120 mg/kg i.p., 90 min after injection): 176.3 (7.36) g
- vocalization threshold ([2]; levetiracetam 120 mg/kg i.p., 120 min after injection): 174.4 (6.30) g
- vocalization threshold ([2]; levetiracetam 120 mg/kg i.p., 180 min after injection): 168.8 (4.70) g
- vocalization threshold ([2]; levetiracetam 120 mg/kg i.p., after diabetes, 0 min (base threshold)): 161.3 (7.23) g
- modulation of chloride fluxes induced by muscimol [3]: did not modulate

Structure (SMILES): CCCC(CCC)C(=O)[O-].[Na+] [Valproate, sodium valproate]
- Kp at 1 h [4]: 0.13 ± 0.02
